The values below come from PubChem BioAssay (NCI).

Structures are written as SMILES.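 Each compound was tested at five concentrations against cells in 96-well plates for 48 hours. The concentration for full growth arrest is given as TGI.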

Among the test systems are DLD-1 colon; HOP-18 NSCLC; XF 498 CNS; DMS 114 small cell lung; KM20L2 colon; M19-MEL melanoma; RXF-631 renal; SNB-78 CNS.
What all share (assay): NCI tumour cell line growth inhibition, 48 h

As to `COC(=O)C(=Cc1cc(OC)c(OC)c(OC)c1-c1cc2c(cc1C(C)=O)OCO2)C(=O)OC`, the TGI worked out at 53.7 µM in the experiment on DLD-1 colon; 87.4 µM with HOP-18 NSCLC; 59.7 µM in the experiment with XF 498 CNS; 99.4 µM in the experiment with DMS 114 small cell lung; 62.8 µM with KM20L2 colon; 75 µM with M19-MEL melanoma.

As to `O=C(Nc1ccc(Cl)cc1Cl)C(=O)C(C(=O)c1ccncc1)C1OC(=O)c2ccccc21` (stereo not drawn), the TGI in the experiment with RXF-631 renal, in the experiment on DLD-1 colon, with HOP-18 NSCLC, in the experiment on SNB-78 CNS, in the experiment on XF 498 CNS and in the experiment on DMS 114 small cell lung was > 100 µM in each case. For the same molecule, the TGI in the experiment with KM20L2 colon and with M19-MEL melanoma was > 100 µM each time.

Consider `C=C1CCC23CC(CC[C@@H]2[C@@]12C[C@@H](c1ccoc1)OC2=O)OC3=O` (stereo partly drawn), for which the TGI in the experiment with DLD-1 colon, in the experiment with HOP-18 NSCLC, in the experiment with SNB-78 CNS, in the experiment with XF 498 CNS, in the experiment with DMS 114 small cell lung and with KM20L2 colon was > 100 µM in each case. In addition, the TGI in the experiment with M19-MEL melanoma was > 100 µM.

Regarding `COc1cccc(/C=C2\C(=O)N(C(=O)c3ccc(NC(C)=O)cc3)N=C2C)c1`, the TGI in the experiment on DLD-1 colon, with SNB-78 CNS, in the experiment on XF 498 CNS, in the experiment on DMS 114 small cell lung and with M19-MEL melanoma was > 100 µM each time.

As for `CCO/N=C(/N)c1ncn(Cc2ccccc2)c1NCC(OCC)OCC`, the TGI in the experiment with DLD-1 colon, in the experiment with SNB-78 CNS, with XF 498 CNS, in the experiment on DMS 114 small cell lung, in the experiment with KM20L2 colon and with M19-MEL melanoma was > 100 µM in each case.

Regarding `O=C1NC2OCC(O)C(O)C2O1` (stereo not drawn), the TGI with DLD-1 colon, in the experiment with HOP-18 NSCLC, in the experiment on SNB-78 CNS, in the experiment with DMS 114 small cell lung, with KM20L2 colon and in the experiment on M19-MEL melanoma was > 100 µM each time.

For `C/C(=C1/CCC/C(=C(/C)c2ccccc2)C1=O)c1ccccc1`, the TGI in the experiment on DLD-1 colon is > 100 µM; in the experiment with HOP-18 NSCLC, > 100 µM; in the experiment with SNB-78 CNS, > 100 µM; with XF 498 CNS, 82 µM; with DMS 114 small cell lung, 70.3 µM; with KM20L2 colon, > 100 µM. In addition, in the experiment on M19-MEL melanoma, the TGI worked out at 58.3 µM.

On to `Cc1ccc(S(=O)(=O)OC(c2ccc(Cl)cc2Cl)C2OC(=O)c3ccccc32)cc1` (stereo not drawn), for which the TGI in the experiment on SNB-78 CNS, in the experiment on XF 498 CNS, in the experiment with DMS 114 small cell lung, in the experiment on KM20L2 colon and with M19-MEL melanoma was > 100 µM in each case.

Regarding `CCOC(=O)C(Cc1cn(S(=O)(=O)c2ccccc2)c2ccccc12)(NC(C)=O)C(=O)OCC`, the TGI with DLD-1 colon was > 100 µM; in the experiment on XF 498 CNS it was > 100 µM; in the experiment with DMS 114 small cell lung, 80.4 µM; in the experiment with KM20L2 colon, > 100 µM; in the experiment with M19-MEL melanoma, > 100 µM.

In the case of `Clc1ccc(-c2c(C3=NCCCN3)nnn2-c2ccc(Cl)cc2)cc1`, the TGI in the experiment with DLD-1 colon was > 100 µM; in the experiment on HOP-18 NSCLC, > 100 µM; in the experiment with SNB-78 CNS, > 100 µM; in the experiment on XF 498 CNS it was 53.5 µM; in the experiment on DMS 114 small cell lung, 49.5 µM; in the experiment with KM20L2 colon, > 100 µM.

Regarding `COc1ccc(CNc2nc3cc(C(F)(F)F)ccc3nc2C)cc1OC`, the TGI in the experiment on DLD-1 colon is > 100 µM; in the experiment with SNB-78 CNS, 55.8 µM; in the experiment on XF 498 CNS, > 100 µM; with KM20L2 colon, > 100 µM; with M19-MEL melanoma, > 100 µM.

For `COc1ccc(-c2cc(=O)c3ccccc3[nH]2)c(OC)c1`, the TGI in the experiment with DLD-1 colon, in the experiment with SNB-78 CNS, in the experiment with DMS 114 small cell lung, with KM20L2 colon and with M19-MEL melanoma was > 100 µM each time.

Take `CC(C)N1CN(C(C(=O)N[C@@H]2C(=O)N3C2SC(C)(C)C3C(=O)O)c2ccccc2)CSC1=S` (stereo partly drawn): the TGI in the experiment on DLD-1 colon, in the experiment on HOP-18 NSCLC, in the experiment with SNB-78 CNS, with XF 498 CNS, in the experiment with DMS 114 small cell lung and in the experiment on KM20L2 colon was > 100 µM each time. Further, the TGI in the experiment with M19-MEL melanoma was > 100 µM.
